# Data taken from ChEMBL document CHEMBL3856210, “Discovery of in vitro antitubercular agents through in silico ligand-based approaches” (Eur J Med Chem, 2016).
# Assay: Antitubercular activity against Mycobacterium tuberculosis H37Ra ATCC 25177 after 21 days by agar dilution method
# Format: functional
# Conditions: ATCC 25177, 504 h
row,SMILES,MIC
1,Cc1[nH]n(-c2ccc(Cl)cc2)c(=O)c1C(=O)c1ccc(Cl)cc1,6.25 µg/mL
2,CCOc1ccc(NC(=O)C(Cc2ccccc2)N2C(=O)c3ccccc3C2=O)cc1 (stereo not drawn),32 µg/mL
3,O=C(O[C@H](Cn1ccnc1)c1ccc(F)cc1)N1CCN(c2ccc(Cl)c(Cl)c2)CC1,16 µg/mL
4,Clc1cccc(CSc2nnc(-c3ccc(Cl)cc3Cl)o2)c1,32 µg/mL
5,CC1=NN(c2ccc(Cl)cc2)C(=O)/C1=C\N1CCOCC1,64 µg/mL
6,Cc1nn(-c2ccccc2)c(O)c1C(=O)c1cccnc1,> 100 µg/mL
7,Cc1c(C(=O)c2ccc(Cl)cc2)c(=O)n(-c2ccccc2)n1Cc1ccc(F)cc1,32 µg/mL
8,O=C(O[C@H](Cn1ccnc1)c1ccc(Cl)cc1)c1cccc(C(F)(F)F)c1,16 µg/mL
9,Fc1ccc([C@H](c2cn(Cc3ccccc3)nn2)n2ccnc2)cc1,64 µg/mL
10,CCc1c(CN2CCSCC2)cc(-c2ccccc2)n1-c1ccc(F)cc1,2 µg/mL
11,CC1=NN(c2ccc(Cl)cc2)C(=O)/C1=C(/c1ccc(Cl)cc1)N1CCN(C)CC1,4 µg/mL
12,CC1=NN(c2ccc(Cl)cc2)C(=O)/C1=C\N1CCN(c2ccccc2)CC1,64 µg/mL
13,O=C1S/C(=C\c2ccc(-c3cccc(Cl)c3Cl)o2)C(=O)N1c1ccc(Cl)cc1,64 µg/mL
14,COc1ccc(-c2cnn3c(=O)c4c([nH]c23)CCCC4)cc1OC,32 µg/mL
15,O=C(O[C@H](Cn1ccnc1)c1ccc(-c2ccccc2)cc1)N1CCN(c2ccc(Cl)c(Cl)c2)CC1,16 µg/mL
16,O=C(c1ccc(Cl)cc1)c1c(C(F)(F)F)[nH]n(-c2ccc(Cl)cc2)c1=O,> 64 µg/mL
17,Cc1cc(/C=N\OCc2ccccc2)c(C)n1-c1ccc(F)cc1,25 µg/mL
18,CC(C)c1[nH]n(-c2ccccc2)c(=O)c1C(=O)c1ccc(Cl)cc1,64 µg/mL
19,O=C1NN(c2ccc(Cl)cc2)C(=O)/C1=C/c1ccc(Cl)cc1Cl,32 µg/mL
20,O=C(O[C@H](Cn1ccnc1)c1ccc(F)cc1)N1CCN(c2ccc([N+](=O)[O-])cc2)CC1,32 µg/mL
21,O=C(OC(Cn1cccc1)c1ccc(Cl)cc1)N1CCN(c2ccc(Cl)c(Cl)c2)CC1 (racemic),64 µg/mL
22,O=C(CSc1nc2cc(Cl)ccc2s1)c1ccc(Cl)cc1,32 µg/mL
23,CC1=NN(c2ccc(Cl)cc2)C(=O)/C1=C\N1CCN(C)CC1,64 µg/mL
24,Cc1nn(-c2ccccc2)c(O)c1C(=O)c1ccc(Cl)cc1,6.25 µg/mL

row,SMILES,MIC
1,Cc1c(C(=O)c2ccc(Cl)cc2)c(=O)n(-c2ccccc2)n1Cc1ccccc1,> 64 µg/mL
2,C/C(=N\OC(=O)COc1ccc(Cl)cc1Cl)c1ccc(Br)cc1,32 µg/mL
3,O=S(=O)(Nc1nc2ccccc2[nH]1)c1ccc(Cl)cc1,32 µg/mL
4,O=C(O[C@H](Cn1ccnc1)c1cccc2ccccc12)N1CCN(c2ccc(Cl)c(Cl)c2)CC1,16 µg/mL
5,O=C(OC(Cc1ccccc1)c1ccc(Cl)cc1)N1CCN(c2ccc(Cl)c(Cl)c2)CC1 (racemic),64 µg/mL
6,Cc1nn(-c2ccccc2)c(O)c1/C(=N/OCc1ccccc1)c1ccc(Cl)cc1,> 100 µg/mL
7,O=C(Cc1noc(-c2ccncc2)n1)Nc1cc(Cl)cc(Cl)c1,32 µg/mL
8,O=C(O[C@H](Cn1ccnc1)c1ccccc1)N1CCN(c2ccc(Cl)c(Cl)c2)CC1,16 µg/mL
9,Cc1nn(-c2ccccc2)c(O)c1/C(=N/Cc1ccccc1)c1ccc(Cl)cc1,> 100 µg/mL
10,CC1=NN(c2ccc(Cl)cc2)C(=O)/C1=C\N1CCN(CCO)CC1,64 µg/mL
11,O=C(O[C@H](Cn1ccnc1)c1ccc(F)cc1)N1CCN(c2ccc(Cl)cc2)CC1,16 µg/mL
12,Cc1cc(/C=N\OCc2ccc([N+](=O)[O-])cc2)c(C)n1-c1ccc(F)cc1,> 100 µg/mL
13,COc1ccc(-n2c(-c3ccc(C)cc3)cc(CN3CCSCC3)c2C)cc1,1 µg/mL
14,COc1ccc(-n2c(-c3ccc(Br)cc3)cc3c2CC(C)(C)CC3=O)c(OC)c1,64 µg/mL
15,Cc1nn(-c2ccc(Cl)cc2)c(O)c1/C(=N/C1CC1)c1ccc(Cl)cc1,> 100 µg/mL
16,Cc1[nH]n(-c2ccc(F)cc2)c(=O)c1C(=O)c1ccc(Cl)cc1,12.5 µg/mL
17,Fc1ccc([C@H](c2cn(-c3ccccc3)nn2)n2ccnc2)cc1,32 µg/mL
18,O=C(OC(Cn1ccnc1)c1ccc(Cl)cc1)N1CCN(c2ccc(Cl)c(Cl)c2)CC1 (racemic),4 µg/mL
19,O=C(O[C@H](Cn1ccnc1)c1ccc([N+](=O)[O-])cc1)N1CCN(c2ccc(Cl)c(Cl)c2)CC1,16 µg/mL
20,CC(C)c1ccc(NC(=O)O[C@H](Cn2ccnc2)c2ccc(F)cc2)cc1,16 µg/mL
21,CN1C(=O)C2C(N=C(Oc3ccc(Cl)cc3)N2Cc2cccc(F)c2)N(C)C1=O (stereo not drawn),64 µg/mL
22,CC1=NN(c2ccccc2)C(=O)/C1=C(/c1ccc(Cl)cc1)N1CCOCC1,16 µg/mL
23,Cc1ncc(-c2cc(=O)n3nc(C)c(-c4ccc(Cl)cc4)c3[nH]2)c(C)n1,2 µg/mL
24,CC(=O)N1CCN(/C=C2\C(=O)N(c3ccc(Cl)cc3)N=C2C)CC1,64 µg/mL

row,SMILES,MIC
1,CN(C(=O)c1cccc(Cl)c1)c1nc(-c2ccccc2)cs1,64 µg/mL
2,O=C(OC(Cn1ccnc1)c1ccc(Cl)cc1)N1CCN(c2ccc([N+](=O)[O-])cc2)CC1 (racemic),16 µg/mL
3,O=C(NCCCn1ccnc1)O[C@H](Cn1ccnc1)c1ccc(F)cc1,32 µg/mL
4,CSc1ccc(-c2cc(CN3CCSCC3)c(C)n2-c2ccc(F)cc2)cc1,< 0.125 µg/mL
5,Cc1cccc(-c2nn3c(=O)cc(CCc4c(C)n[nH]c4C)[nH]c3c2C)c1,64 µg/mL
6,COCc1nn2c(=O)cc(CCc3c(C)n[nH]c3C)[nH]c2c1-c1ccc(Cl)cc1,16 µg/mL
7,Cc1cc(=O)n2nc(C)c(-c3ccc(Cl)cc3)c2[nH]1,32 µg/mL
8,Cc1ccc(-n2c(C)cc(/C=N\OCc3ccccc3)c2C)cc1,> 100 µg/mL
9,Cc1nn2c(=O)c3c([nH]c2c1-c1ccc(Cl)cc1)CCC3,8 µg/mL
10,CCc1c(CN2CCN(C)CC2)cc(-c2ccc(Cl)cc2)n1-c1ccc(Cl)cc1,2 µg/mL
11,O=C(O[C@H](Cn1ccnc1)c1ccc(F)cc1)N1CCN(C(=O)c2ccco2)CC1,64 µg/mL
12,CCc1c(CN2CCSCC2)cc(-c2ccccc2F)n1-c1ccccc1F,4 µg/mL
13,CC1=NN(c2ccc(Cl)cc2)C(=O)/C1=C(/c1ccc(Cl)cc1)N1CCOCC1,4 µg/mL
14,Cc1n[nH]c(C)c1CCc1cc(=O)n2nc(C)c(-c3ccc(Cl)cc3)c2[nH]1,8 µg/mL
15,Cc1c(C(=O)c2ccc(Cl)cc2)c(=O)n(-c2ccc(Cl)cc2)n1Cc1ccc(F)cc1,32 µg/mL
16,COC(=O)C1=C(C)N(Cc2ccc(C)cc2)C(=O)/C1=C\c1ccc(C)cc1OC,32 µg/mL
17,CC1=NN(c2ccccc2)C(=O)/C1=C(/c1ccc(Cl)cc1)N(C)C,32 µg/mL
18,O=C(Nc1ccc(Sc2ccc([N+](=O)[O-])cc2)cc1)O[C@H](Cn1ccnc1)c1ccc(Cl)cc1,16 µg/mL
19,C=C(C)Cn1c(S)nnc1CCn1c2ccc(Cl)cc2c2cc(Cl)ccc21,32 µg/mL
20,CO/N=C(\c1ccc(Cl)cc1)c1c(C)nn(-c2ccc(Cl)cc2)c1O,25 µg/mL
21,CC1=NN(c2ccc(Cl)cc2)C(=O)/C1=C\N(C)C,> 64 µg/mL
22,Cc1nn(-c2ccc(Cl)cc2)c(O)c1/C(=N/OCc1ccccc1)c1ccc(Cl)cc1,> 100 µg/mL
23,CCN(Cc1cc2cc(C)c(C)cc2[nH]c1=O)c1ccc(OC)cc1C,> 64 µg/mL
24,CCC/N=C(\c1ccc(Cl)cc1)c1c(C)nn(-c2ccc(Cl)cc2)c1O,> 100 µg/mL

row,SMILES,MIC
1,Cc1nn(-c2ccc(F)cc2)c(OC(=O)c2ccccc2)c1C(=O)c1ccccc1,25 µg/mL
2,Cc1nn(-c2ccccc2)c(O)c1C(=O)c1cccs1,50 µg/mL
3,CC1=NN(c2ccc(Cl)cc2)C(=O)/C1=C\Nc1ccccc1,64 µg/mL
4,Cc1c(-c2cccc(Cl)c2)nn2c(=O)cc(CCCN3CCOCC3)[nH]c12,32 µg/mL
5,O=C(c1ccc(Cl)cc1)c1c(C(F)(F)F)[nH]n(-c2ccccc2)c1=O,> 64 µg/mL
6,COc1ccc(CO/N=C\c2cc(C)n(-c3ccc(F)cc3)c2C)cc1,> 100 µg/mL
7,Cc1nn(C(=O)c2cccc([N+](=O)[O-])c2)c(C)c1Sc1ccc(Cl)cc1,32 µg/mL
8,Cc1[nH]n(-c2ccccc2)c(=O)c1C(=O)c1cccc(F)c1,25 µg/mL
9,Clc1ccc(C2=CSC3=NN=C(SCc4ccccn4)C23)cc1 (stereo not drawn),64 µg/mL
10,CC1=NN(c2ccc(Cl)cc2)C(=O)/C1=C\N1CCNCC1C(=O)c1ccco1 (stereo not drawn),32 µg/mL
11,C=CCN1CC(c2nc3ccccc3n2Cc2cccc(Cl)c2)CC1=O (stereo not drawn),32 µg/mL
12,Cc1ccc(-n2nc(C)c(C(=O)c3ccc(Cl)cc3)c2O)cc1,16 µg/mL
13,CCCc1cc(=O)n2nc(C)c(-c3ccc(OC)cc3)c2[nH]1,32 µg/mL
14,CSc1ccccc1-n1c(-c2ccc(F)cc2)cc(CN2CCSCC2)c1C,8 µg/mL
15,CC(C)c1[nH]n(-c2ccc(Cl)cc2)c(=O)c1C(=O)c1ccc(Cl)cc1,32 µg/mL
16,Cc1cc(/C=N\OCc2cccc(F)c2)c(C)n1-c1ccc(F)cc1,> 100 µg/mL
17,Cc1[nH]n(-c2ccc(Br)cc2)c(=O)c1C(=O)c1ccc(Cl)cc1,4 µg/mL
18,COCc1cc(=O)n2nc(C)c(-c3ccc(Cl)cc3)c2[nH]1,16 µg/mL
19,CNCCC/C(=C1\C(=O)N(c2ccc(Cl)cc2)N=C1C)c1ccc(Cl)cc1,64 µg/mL
20,COc1ccc(C(CNS(=O)(=O)N2CCCC2)c2c[nH]c3ccccc23)cc1 (stereo not drawn),32 µg/mL
21,O=C(O[C@H](Cn1ccnc1)c1ccc(Cl)cc1)N1CCN(C(=O)c2ccco2)CC1,64 µg/mL
